In experiment [1] the test system is CRF. Also on record: method as in PMID 9179387. Conditions: isolated hypothalamic in vitro; cited from earlier work.
A further experiment has as its system corticosterone. Conditions: cited from earlier work.
Experiment [2] has as its system CRF. Also on record: method as in PMID 9179387. Conditions: intraperitoneal injection to mice; cited from earlier work.
Another experiment deals with adrenaline. Also on record: method as in PMID 9245486. Conditions: intraperitoneal, 40–200 μg/kg; cited from earlier work.
The next experiment deals with Bmal1 mRNA. Briefly: Real-time RT-PCR of Bmal1 mRNA in peripheral tissues. In kind it is in vivo, mice. The note with it: after a single treatment. How it is done:
(§1) Male C57BL/6J mice (7 weeks old) were purchased from Charles River Japan (Kanagawa, Japan) and used for the serum hormone assay and RT-PCR. Male ICR mice were purchased from Tokyo Laboratory Animals Science Co., Ltd. (Tokyo, Japan), and female PERIOD2::LUCIFERASE (PER2::LUC) knock-in mice (ICR background) bred at Waseda University were used for blood glucose measurements and in vivo imaging assays, respectively. The mice were all housed under conditions of controlled temperature (23 °C ± 3 °C), humidity (50% ± 20%), and lighting (lights on from 07:00 to 19:00 at Taisho Pharmaceutical Co., Ltd. or from 08:00 to 20:00 at Waseda University). In the 24 h cycle, Zeitgeber time 0 (ZT0) was designated as the time when the lights were turned on, and ZT12 was designated as the time when the lights were turned off. All the mice were given access to food and tap water ad libitum, and nobiletin (10–100 mg/kg; purchased from FUJIFILM Wako Pure Chemical Corporation, Osaka, Japan) was administered by intraperitoneal (i.p.) injection in the vehicle (10 mL/kg body weight) containing 0.5% carboxymethyl cellulose (CMC). Rolipram (PDE4 inhibitor, FUJIFILM Wako Pure Chemical Corporation) and SR1078 (RORα/γ agonist, FUJIFILM Wako Pure Chemical Corporation) were also used for the experiment at 10 mg/kg in 0.5% CMC [12]. Mice were euthanized by rapid decapitation for whole blood samples.
(§2) Figure 3 Nobiletin stimulated adrenaline and corticosterone secretion, and induced acute clock gene expression changes. (A–C) Mice received intraperitoneal injections of control (0.5% CMC) or nobiletin (10 or 100 mg/kg) at ZT3. (A) Serum corticosterone at 1 h after treatment (n = 6 in each). $$$ p < 0.001 by Tukey’s multiple comparisons test. (B) Serum corticosterone and adrenaline at 1, 2, and 4 h after treatment (n = 4 in each). # p < 0.05 vs. control at each time point by Mann–Whitney test; ** p < 0.01 vs. control at each time point by Student’s t-test. (C) Blood glucose changes after treatment (n = 9 in each). Statistics of 2-way repeated ANOVA are indicated on the graph. […]

The subject of the next experiment is Per1 mRNA. Briefly: Real-time RT-PCR of Per1 mRNA in peripheral tissues. It counts as in vivo, mice. Conditions: stomach and lung, 2 h after 10 mg/kg i.p. The procedure:
as §1, §2
For orientation: In qPCR the cycle at which signal appears reflects the starting amount.

In a further experiment the test system is Per2 mRNA. Kind of experiment: Real-time RT-PCR of Per2 mRNA in peripheral tissues. Conditions: stomach and lung, 2 h after 10 mg/kg i.p. It counts as in vivo, mice. How it is done:
as §1, with “samples. […]” for “samples.”

In the next experiment the test system is serum corticosterone. Briefly: Serum corticosterone ELISA after i.p. injection. It counts as in vivo, mice. The note with it: 10 mg/kg i.p. at ZT3, 1 h after treatment. How it is done:
(§3) Male C57BL/6J mice (7 weeks old) were purchased from Charles River Japan (Kanagawa, Japan) and used for the serum hormone assay and RT-PCR. Male ICR mice were purchased from Tokyo Laboratory Animals Science Co., Ltd. (Tokyo, Japan), and female PERIOD2::LUCIFERASE (PER2::LUC) knock-in mice (ICR background) bred at Waseda University were used for blood glucose measurements and in vivo imaging assays, respectively. The mice were all housed under conditions of controlled temperature (23 °C ± 3 °C), humidity (50% ± 20%), and lighting (lights on from 07:00 to 19:00 at Taisho Pharmaceutical Co., Ltd. or from 08:00 to 20:00 at Waseda University). In the 24 h cycle, Zeitgeber time 0 (ZT0) was designated as the time when the lights were turned on, and ZT12 was designated as the time when the lights were turned off. […]
(§4) Serum corticosterone, adrenaline, and adreno-corticotropic hormone (ACTH) levels, and corticotropin releasing factor (CRF) in the hypothalamus, were measured using enzyme-linked immunosorbent assay (ELISA). […] Blood glucose levels were measured using a Glucose PILOT kit (Aventir Biotech, LLC, Carlsbad, CA, USA). The range of blood glucose that could be precisely measured with the kit was 20–600 mg/dL. […]
A general note: In an ELISA, binding on a coated surface is turned into a signal by an enzyme label.

A further experiment relates to serum adrenaline. Briefly: Serum adrenaline ELISA after i.p. injection. The note with it: 10 mg/kg i.p. at ZT3, 1 h after treatment. It counts as in vivo, mice. The procedure: as §3, §4
The next experiment concerns PDE1C. Also on record: method as in PMID 22451408. Conditions: cited from earlier work.
Another experiment relates to PDE4B. Also on record: method as in PMID 22451408. The note with it: cited from earlier work.

SMILES strings stand for the structures. Read-outs that look alike come from different tables or passages of the source.

With `CCCCn1c(=O)c2c(ncn2CC(C)=O)n(CCCC)c1=O` [denbufylline], the CRF production result in the experiment on CRF [1] is recorded as “significant production of CRF”. Further, in the experiment with corticosterone (via the HPA system), the corticosterone secretion entry is on record as “promotes corticosterone secretion”. Also, in the experiment with CRF [2], the “CRF induction in vivo” value is “produced CRF induction”.

Turning to `COc1ccc(C2CNC(=O)C2)cc1OC1CCCC1` (stereo not drawn) [rolipram], the CRF production result in the experiment with CRF [1] is “significant production of CRF”. In addition, the adrenaline secretion entry in the experiment on adrenaline is “increases”; in the experiment with serum adrenaline, “detected”. Further, the corticosterone secretion entry in the experiment on corticosterone (intraperitoneal, 40–200 μg/kg) is listed as “increases”; in the experiment with serum corticosterone it was “detected”. Also, in the experiment on corticosterone (low dose, 1.6 and 8 μg/kg), the serum corticosterone entry was “did not produce serum corticosterone increase”. For the same molecule, the Bmal1 expression entry with Bmal1 mRNA is recorded as “did not change”. In the experiment on Per1 mRNA, the “Per1 mRNA changes” value is reported as “detected”. The “Per2 mRNA changes” value with Per2 mRNA is recorded as “detected”.

For `COc1cc(-c2cc(=O)c3c(O)c(OC)c(O)c(OC)c3o2)ccc1O` [Sudachitin], the “inhibition of PDE1C” value in the experiment with PDE1C is on record as “inhibit”. Also, the “inhibition of PDE4B” value in the experiment on PDE4B was “inhibit”.

With `O=C(Nc1ccc(C(O)(C(F)(F)F)C(F)(F)F)cc1)c1ccc(C(F)(F)F)cc1` [SR1078], the Bmal1 expression entry in the experiment on Bmal1 mRNA is listed as “did not change significantly”.

These data come from paper PMC11123956, “Nobiletin Stimulates Adrenal Hormones and Modulates the Circadian Clock in Mice” (Nutrients, 2024).
